# Test results from ChEMBL document CHEMBL3132847, “Pseudopeptides with a centrally positioned alkene-based disulphide bridge mimetic stimulate kallikrein-related peptidase 3 activity” (Medchemcomm, 2013).
# Activity calls are given as the source filed them. The calls are words filed in the database; no cut-off is given here. Bridge positions count the residues as written; N and C are the ends. Square brackets hold non-standard residues; d marks the D form. Peptide text beside a SMILES is read from it. AllylGly = C=CC[C@H](N)C(=O)O; Aoc = NCCCCCCCC(=O)O
# Target: T1, Prostate-specific antigen (Homo sapiens) (UniProt P07288)
# T1 sequence (whole entry): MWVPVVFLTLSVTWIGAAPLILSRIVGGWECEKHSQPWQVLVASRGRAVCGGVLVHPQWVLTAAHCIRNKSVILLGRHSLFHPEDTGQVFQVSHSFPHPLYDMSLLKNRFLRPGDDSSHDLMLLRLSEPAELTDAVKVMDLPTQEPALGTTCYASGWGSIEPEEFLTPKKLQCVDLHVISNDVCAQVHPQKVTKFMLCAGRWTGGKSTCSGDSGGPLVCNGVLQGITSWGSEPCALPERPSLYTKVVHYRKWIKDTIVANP
# Test: Stimulation of KLK3 (unknown origin) proteolytic activity using chromogenic chymotrypsin MeO-Suc-Arg-Pro-Tyr-pNA substrate at 20 ug/ml pre-incubated for 30 mins before addition of substrate by […] relative to untreated control
row,SMILES,Activity
1,CC[C@H](C)[C@@H]1NC(=O)[C@@H](NC(=O)[C@H](Cc2ccc(O)cc2)NC(C)=O)C/C=C/C[C@@H](C(=O)N[C@@H](Cc2c[nH]c3ccccc23)C(N)=O)NC(=O)[C@H](Cc2cnc[nH]2)NC(=O)[C@H](Cc2cnc[nH]2)NC(=O)[C@H](CCC(=O)O)NC1=O (Ac-Y[AllylGly]IEHH[AllylGly]W-NH2; staple (E) 2-7),inactive
2,CC[C@H](C)[C@@H]1NC(=O)[C@@H](NC(=O)[C@H](Cc2ccc(O)cc2)NC(C)=O)C/C=C/C[C@@H](C(=O)N[C@@H](Cc2c[nH]c3ccccc23)C(=O)O)NC(=O)[C@H](Cc2cnc[nH]2)NC(=O)[C@H](Cc2cnc[nH]2)NC(=O)[C@H](CCC(=O)O)NC1=O (Ac-Y[AllylGly]IEHH[AllylGly]W-OH; staple (E) 2-7),inactive
3,"CC(C)[C@@H]1NC(=O)[C@@H](N)CSSC[C@@H](C(N)=O)NC(=O)[C@H]([C@@H](C)O)NC(=O)[C@H](Cc2c[nH]c3ccccc23)NC(=O)[C@H](C)NC(=O)[C@@H]2CSSC[C@H](NC(=O)[C@H](C)NC(=O)[C@H](Cc3ccc(O)cc3)NC(=O)[C@H](C)NC1=O)C(=O)N[C@@H](CCC(=O)O)C(=O)N[C@@H](Cc1cnc[nH]1)C(=O)N2 (H-CVAYACEHCAWTC-NH2; disulfide 1-13, 6-9)",84%
4,"CC(C)[C@@H]1NC(=O)[C@@H](N)CSSC[C@@H](C(N)=O)NC(=O)[C@H]([C@@H](C)O)NC(=O)[C@H](Cc2c[nH]c3ccccc23)NC(=O)[C@@H]2CSSC[C@H](NC(=O)[C@H](Cc3ccc(O)cc3)NC(=O)[C@H](C)NC1=O)C(=O)N[C@@H](Cc1ccccc1)C(=O)N[C@@H](CCC(=O)O)C(=O)N[C@@H](Cc1cnc[nH]1)C(=O)N[C@@H](Cc1cnc[nH]1)C(=O)N2 (H-CVAYCFEHHCWTC-NH2; disulfide 1-13, 5-10)",583%
5,"CC(C)[C@@H]1NC(=O)[C@@H](N)CSSC[C@@H](C(N)=O)NC(=O)[C@H]([C@@H](C)O)NC(=O)[C@H](Cc2c[nH]c3ccccc23)NC(=O)[C@@H]2CSSC[C@H](NC(=O)[C@H](Cc3ccc(O)cc3)NC(=O)[C@H](C)NC1=O)C(=O)NCC(=O)N[C@@H](CCC(=O)O)C(=O)N[C@@H](Cc1cnc[nH]1)C(=O)N[C@@H](Cc1cnc[nH]1)C(=O)N2 (H-CVAYCGEHHCWTC-NH2; disulfide 1-13, 5-10)",152%
6,"CC[C@H](C)[C@@H]1NC(=O)[C@@H]2CSSC[C@H](NC(=O)[C@H](C)NC(=O)[C@H](C)NC(=O)[C@H](C)NC1=O)C(=O)N[C@@H](Cc1c[nH]c3ccccc13)C(=O)N[C@@H]([C@@H](C)O)C(=O)N[C@H](C(N)=O)CSSC[C@H](N)C(=O)N[C@@H](C(C)C)C(=O)N[C@@H](C)C(=O)N[C@@H](Cc1ccc(O)cc1)C(=O)N2 (H-CVAYCIAAACWTC-NH2; disulfide 1-13, 5-10)",165%
7,"CC[C@H](C)[C@@H]1NC(=O)[C@@H]2CSSC[C@H](NC(=O)[C@H](Cc3cnc[nH]3)NC(=O)[C@H](C)NC(=O)[C@H](C)NC1=O)C(=O)N[C@@H](Cc1c[nH]c3ccccc13)C(=O)N[C@@H]([C@@H](C)O)C(=O)N[C@H](C(N)=O)CSSC[C@H](N)C(=O)N[C@@H](C(C)C)C(=O)N[C@@H](C)C(=O)N[C@@H](Cc1ccc(O)cc1)C(=O)N2 (H-CVAYCIAAHCWTC-NH2; disulfide 1-13, 5-10)",476%
8,"CC[C@H](C)[C@@H]1NC(=O)[C@@H]2CSSC[C@H](NC(=O)[C@H](C)NC(=O)[C@H](Cc3cnc[nH]3)NC(=O)[C@H](C)NC1=O)C(=O)N[C@@H](Cc1c[nH]c3ccccc13)C(=O)N[C@@H]([C@@H](C)O)C(=O)N[C@H](C(N)=O)CSSC[C@H](N)C(=O)N[C@@H](C(C)C)C(=O)N[C@@H](C)C(=O)N[C@@H](Cc1ccc(O)cc1)C(=O)N2 (H-CVAYCIAHACWTC-NH2; disulfide 1-13, 5-10)",239%
9,"CC(C)C[C@@H]1NC(=O)[C@@H]2CSSC[C@H](NC(=O)[C@H](Cc3cnc[nH]3)NC(=O)[C@H](Cc3cnc[nH]3)NC(=O)[C@H](CCC(=O)O)NC1=O)C(=O)N[C@@H](Cc1c[nH]c3ccccc13)C(=O)N[C@@H]([C@@H](C)O)C(=O)N[C@H](C(N)=O)CSSC[C@H](N)C(=O)N[C@@H](C(C)C)C(=O)N[C@@H](C)C(=O)N[C@@H](Cc1ccc(O)cc1)C(=O)N2 (H-CVAYCLEHHCWTC-NH2; disulfide 1-13, 5-10)",436%
10,CC[C@H](C)[C@@H]1NC(=O)[C@@H]2C/C=C/C[C@H](NC(=O)[C@H](Cc3cnc[nH]3)NC(=O)[C@H](C)NC(=O)[C@H](C)NC1=O)C(=O)N[C@@H](Cc1c[nH]c3ccccc13)C(=O)N[C@@H]([C@@H](C)O)C(=O)N[C@H](C(=O)O)CSSC[C@H](N)C(=O)N[C@@H](C(C)C)C(=O)N[C@@H](C)C(=O)N[C@@H](Cc1ccc(O)cc1)C(=O)N2 (H-CVAY[AllylGly]IAAH[AllylGly]WTC-OH; disulfide 1-13; staple (E) 5-10),225%
11,CC[C@H](C)[C@@H]1NC(=O)[C@@H]2C/C=C/C[C@H](NC(=O)[C@H](Cc3cnc[nH]3)NC(=O)[C@H](Cc3cnc[nH]3)NC(=O)[C@H](CCC(=O)O)NC1=O)C(=O)N[C@@H](Cc1c[nH]c3ccccc13)C(=O)N[C@@H]([C@@H](C)O)C(=O)N[C@H](C(=O)O)CSSC[C@H](N)C(=O)N[C@@H](C(C)C)C(=O)N[C@@H](C)C(=O)N[C@@H](Cc1ccc(O)cc1)C(=O)N2 (H-CVAY[AllylGly]IEHH[AllylGly]WTC-OH; disulfide 1-13; staple (E) 5-10),189%

# Now from value to compound:
row,Activity,SMILES
1,127%,"CC[C@H](C)[C@@H]1NC(=O)[C@@H]2CSSC[C@H](NC(=O)[C@H](Cc3cnc[nH]3)NC(=O)[C@H](Cc3cnc[nH]3)NC(=O)[C@H](CCC(=O)O)NC1=O)C(=O)N[C@@H](Cc1c[nH]c3ccccc13)C(=O)N[C@@H](C)C(=O)N[C@H](C(N)=O)CSSC[C@H](N)C(=O)N[C@@H](C)C(=O)N[C@@H](C)C(=O)N[C@@H](Cc1ccc(O)cc1)C(=O)N2 (H-CAAYCIEHHCWAC-NH2; disulfide 1-13, 5-10)"
2,299%,"CC(C)[C@@H]1NC(=O)[C@@H](N)CSSC[C@@H](C(N)=O)NC(=O)[C@H]([C@@H](C)O)NC(=O)[C@H](Cc2c[nH]c3ccccc23)NC(=O)[C@@H]2CSSC[C@H](NC(=O)[C@H](Cc3ccc(O)cc3)NC(=O)[C@H](C)NC1=O)C(=O)N[C@@H](C)C(=O)N[C@@H](CCC(=O)O)C(=O)N[C@@H](Cc1cnc[nH]1)C(=O)N[C@@H](Cc1cnc[nH]1)C(=O)N2 (H-CVAYCAEHHCWTC-NH2; disulfide 1-13, 5-10)"
3,226%,"CC[C@H](C)[C@@H]1NC(=O)[C@@H]2CSSC[C@H](NC(=O)[C@H](C)NC(=O)[C@H](C)NC(=O)[C@H](CCC(=O)O)NC1=O)C(=O)N[C@@H](Cc1c[nH]c3ccccc13)C(=O)N[C@@H]([C@@H](C)O)C(=O)N[C@H](C(N)=O)CSSC[C@H](N)C(=O)N[C@@H](C(C)C)C(=O)N[C@@H](C)C(=O)N[C@@H](Cc1ccc(O)cc1)C(=O)N2 (H-CVAYCIEAACWTC-NH2; disulfide 1-13, 5-10)"
4,625%,"CC[C@H](C)[C@@H]1NC(=O)[C@@H]2CSSC[C@H](NC(=O)[C@H](Cc3cnc[nH]3)NC(=O)[C@H](Cc3cnc[nH]3)NC(=O)[C@H](CCC(=O)O)NC1=O)C(=O)N[C@@H](Cc1c[nH]c3ccccc13)C(=O)N[C@@H]([C@@H](C)O)C(=O)N[C@H](C(=O)O)CSSC[C@H](N)C(=O)N[C@@H](C(C)C)C(=O)N[C@@H](C)C(=O)N[C@@H](Cc1ccc(O)cc1)C(=O)N2 (H-CVAYCIEHHCWTC-OH; disulfide 1-13, 5-10)"
5,223%,CC(C)[C@@H]1NC(=O)[C@@H](N)CSSC[C@@H](C(=O)O)NC(=O)[C@H]([C@@H](C)O)NC(=O)[C@H](Cc2c[nH]c3ccccc23)NC(=O)[C@@H]2C/C=C/C[C@H](NC(=O)[C@H](Cc3ccc(O)cc3)NC(=O)[C@H](C)NC1=O)C(=O)N[C@@H](Cc1ccccc1)C(=O)N[C@@H](CCC(=O)O)C(=O)N[C@@H](Cc1cnc[nH]1)C(=O)N[C@@H](Cc1cnc[nH]1)C(=O)N2 (H-CVAY[AllylGly]FEHH[AllylGly]WTC-OH; disulfide 1-13; staple (E) 5-10)
6,inactive,CC(C)[C@@H]1NC(=O)[C@@H](N)CSSC[C@@H](C(=O)O)NC(=O)[C@H]([C@@H](C)O)NC(=O)[C@H](Cc2c[nH]c3ccccc23)NC(=O)CCCCCCCNC(=O)[C@H](Cc2ccc(O)cc2)NC(=O)[C@H](C)NC1=O (H-CVAY[Aoc]WTC-OH; disulfide 1-8)

# Target: T1, Prostate-specific antigen (Homo sapiens)
# Test: Stimulation of KLK3 (unknown origin) proteolytic activity using chromogenic chymotrypsin MeO-Suc-Arg-Pro-Tyr-pNA substrate at 200 ug/ml pre-incubated for 30 mins before addition of substrate by […] relative to untreated control
row,fold change (FC),SMILES
1,4,CC(C)[C@@H]1NC(=O)[C@@H](N)CSSC[C@@H](C(=O)O)NC(=O)[C@H]([C@@H](C)O)NC(=O)[C@H](Cc2c[nH]c3ccccc23)NC(=O)[C@@H]2C/C=C/C[C@H](NC(=O)[C@H](Cc3ccc(O)cc3)NC(=O)[C@H](C)NC1=O)C(=O)N[C@@H](Cc1ccccc1)C(=O)N[C@@H](CCC(=O)O)C(=O)N[C@@H](Cc1cnc[nH]1)C(=O)N[C@@H](Cc1cnc[nH]1)C(=O)N2 (H-CVAY[AllylGly]FEHH[AllylGly]WTC-OH; disulfide 1-13; staple (E) 5-10)
2,4,CC[C@H](C)[C@@H]1NC(=O)[C@@H]2C/C=C/C[C@H](NC(=O)[C@H](Cc3cnc[nH]3)NC(=O)[C@H](C)NC(=O)[C@H](C)NC1=O)C(=O)N[C@@H](Cc1c[nH]c3ccccc13)C(=O)N[C@@H]([C@@H](C)O)C(=O)N[C@H](C(=O)O)CSSC[C@H](N)C(=O)N[C@@H](C(C)C)C(=O)N[C@@H](C)C(=O)N[C@@H](Cc1ccc(O)cc1)C(=O)N2 (H-CVAY[AllylGly]IAAH[AllylGly]WTC-OH; disulfide 1-13; staple (E) 5-10)
